# Experimental data taken from patent US8709406B2, “Prevention and treatment of oxidative stress disorders by gluthathione and phase II detoxification enzymes” (Brassica Foundation for ChemoProtection Research, priority 2001, dated 2014).
# Assays:
# [1] = tested on: HaCaT cells; experiment: tert-Butyl hydroperoxide cytotoxicity (MTT, median effect analysis) and protection by sulforaphane; type: cell-based, human; details: tert-butyl hydroperoxide 8 h
# Protocol: Mouse L1210 leukemia cells, a gift from Dr. Joseph G. Cory, East Carolina State University, Greenville, N.C., were grown in RPMI 1640 medium supplemented with 10% horse serum. All cultures were incubated in a humidified atmosphere of 5% CO2 at 37° C. Media and sera were obtained from Life Technologies (Rockville, Md.).
# All experiments were performed in 96-well microliter plates. ARPE-19 and HaCaT cells were seeded at 10,000 cells per well and grown for 24 h before addition of sulforaphane, whereas L1210 cells (5,000 cells/well) were not incubated before sulforaphane treatment. Solutions of sulforaphane (5 mM) in dimethyl sulfoxide were diluted with the cognate culture medium to provide final inducer concentrations of 0.16-5.0 μM. The final DMSO concentrations were 0.1% by volume.
# (§1) Cell viability was determined by spectroscopic measurement of the reduction of MTT (Carmichael, J., DeGraff, W. G., Gazdar, A. F., Minna, J. D. & Mitchell, J. B. (1987) Cancer Res. 47, 936-942). The culture media were discarded after the designated incubation periods, the cells were washed three times with PBS by use of a microtiter plate washer (Ultrawash Plus, Dynex Technologies, Chantilly, Va.). Each well then received 150 μl of an MTT solution (0.5 mg/ml) in serum-free medium. The plates were incubated for 2 h at 37° C., the MTT solution was discarded, 100 μl of DMSO were added to each well, and the plates were shaken at 200 rpm on an orbital shaker for 5 min. The absorbances of the wells were determined at 555 nm with a microtiter plate reader (Spectra Max Plus, Molecular Devices, Sunnyvale, Calif.). The absorbance of reduced MIT was then compared at each inducer and oxidant concentration to that of untreated control cells that received only the vehicle in which sulforaphane (DMSO) and menadione (DMSO or PBS) were dissolved. In each experiment three identical 96-well plates were used and the means of the absorbance values, the standard deviations of these means, and their coefficients of variation were calculated.
# Dose-effect analyses were performed according to the Median Effect Equation, by use of a computer program (Chou, T. C. & Hayball, M. (1996) CalcuSyn for Windows 3.1 and 95: multiple dose effect analyzer and manual for IBM-PC, Biosoft, Cambridge, U.K). The equation: fa/fu=[D/Dm]^m, where fa is the fraction of cells affected by the oxidant, fu is the fraction unaffected (i.e., 1-fa), D is the dose of oxidant required to produce the effect fa, Dm is the concentration of oxidant required to produce a 50% effect, i.e., when fa=fu, and the slope m is a measure of the sigmoidicity of the dose-response curve, and is therefore a measure of cooperativity. The results are analyzed by plotting log(fa/fu) with respect to log D of the oxidant. The computer program provides the slope (m) of the curves, and the goodness of fit (r^2) to linearity.
# [2] = tested on: Retina Pigment Epithelium Cell; experiment: Photooxidative damage by all-trans-retinal and 365 nm light, protection by sulforaphane (cell survival); type: cell-based, human
# Protocol: There is accumulating evidence that chronic exposure to sunlight plays a role in some degenerative diseases, for instance, age-related macular degeneration (AMD). We have, therefore, carried out an experiment of protection of human RPE cells against photooxidative damage mediated by all-trans-retinal, which exists in human retina and is a critical component of the visual cycle.
# as §1
# To examine the protective effect of sulforaphane against photooxidative damage mediated by all-trans-retinal and light exposure, the cells were treated with 0-100 μM of all-trans-retinal for 2 hours and light exposure at 365 nm for 20 min after incubation with 0-5 μM of sulforaphane for 24 hours.
# [3] = tested on: glutathione reductase; details: ARPE-19; sulforaphane 0.625 and 2.5 μM 24 h, then medium without inducer
# Protocol: (§2) Cells were lysed by addition of a digitonin solution (0.8 mg/ml digitonin in 2 mM EDTA, pH 7.8), incubated at 37° C. for 20 min, gently shaken for 20 min at 25° C., and centrifuged at 1,500×g for 20 min at 4° C.
# (§3) All measurements were made in 96-well microtiter plates at 25° C., and reaction rates were monitored with a microtiter plate reader. The QR activities of supernatant fractions were determined by procedures developed in our laboratory (Fahey, J. W., Zhang, Y. & Talalay, P. (1997) Proc. Natl. Acad. Sci. USA 94, 10367-10372; Prochaska, H. J., Santamaria, A. B. & Talalay, P. (1992) Proc. Natl. Acad. Sci. USA 89, 2394-2398.). Specific activities were obtained by relating the reaction rates to protein concentrations determined with the bicinchoninic acid reagent (Smith, P. K., Krohn, R. I., Hermanson, G. T., Mallia, A. K., Gratner, F. H., Provenzano, M. D., Fujimoto, E. K., Goeke, N. M., Olson, B. J. & Klenk, D. C. (1985) Anal. Biochem. 150, 76-85). […] Glutathione reductase activity was assayed by mixing 50 μl of cell lysate with 25 μl of 1 mM NADPH, 25 μl of GSSG (20 mg/ml), and 150 μl of 50 mM sodium phosphate, pH 7.5. Initial reaction rates were obtained at 340 nm (Carlberg, I. & Mannervik, B. (1985) Methods Enzymol. 113, 484-490).
# [4] = tested on: quinone reductase; details: ARPE-19
# Protocol: as §2, §3
# [5] = after sulforaphane 0.63 μM 24 h
# [6] = after sulforaphane 1.25 μM 24 h
# [7] = after sulforaphane 2.50 μM 24 h
smiles,measurement,setting,value
C[S+]([O-])CCCCN=C=S (stereo not drawn) [Sulforaphane],Dm (median effect concentration) of tert-butyl hydroperoxide,[1]; [5],113 µM
same,m (slope of median effect plot) for tert-butyl hydroperoxide,[1]; [5],0.894
same,Dm (median effect concentration) of tert-butyl hydroperoxide,[1]; [6],166 µM
same,m (slope of median effect plot) for tert-butyl hydroperoxide,[1]; [6],0.921
same,Dm (median effect concentration) of tert-butyl hydroperoxide,[1]; [7],200 µM
same,m (slope of median effect plot) for tert-butyl hydroperoxide,[1]; [7],0.768
same,Survival,"[2]; 365 nm light, all-trans-retinal 0 μM, sulforaphane 1.25 μM 24 h",100.0%
same,Survival,"[2]; 365 nm light, all-trans-retinal 0 μM, sulforaphane 2.50 μM 24 h",100.6%
same,Survival,"[2]; 365 nm light, all-trans-retinal 0 μM, sulforaphane 5.00 μM 24 h",100.4%
same,Survival,"[2]; 365 nm light, all-trans-retinal 12.5 μM, sulforaphane 1.25 μM 24 h",95.4%
same,Survival,"[2]; 365 nm light, all-trans-retinal 12.5 μM, sulforaphane 2.50 μM 24 h",96.5%
same,Survival,"[2]; 365 nm light, all-trans-retinal 12.5 μM, sulforaphane 5.00 μM 24 h",103.4%
same,Survival,"[2]; 365 nm light, all-trans-retinal 25 μM, sulforaphane 1.25 μM 24 h",54.4%
same,Survival,"[2]; 365 nm light, all-trans-retinal 25 μM, sulforaphane 2.50 μM 24 h",63.8%
same,Survival,"[2]; 365 nm light, all-trans-retinal 25 μM, sulforaphane 5.00 μM 24 h",72.2%
same,Survival,"[2]; 365 nm light, all-trans-retinal 50 μM, sulforaphane 1.25 μM 24 h",11.7%
same,Survival,"[2]; 365 nm light, all-trans-retinal 50 μM, sulforaphane 2.50 μM 24 h",15.2%
same,Survival,"[2]; 365 nm light, all-trans-retinal 50 μM, sulforaphane 5.00 μM 24 h",27.4%
same,Survival,"[2]; 365 nm light, all-trans-retinal 100 μM, sulforaphane 1.25 μM 24 h",3.4%
same,Survival,"[2]; 365 nm light, all-trans-retinal 100 μM, sulforaphane 2.50 μM 24 h",5.2%
same,Survival,"[2]; 365 nm light, all-trans-retinal 100 μM, sulforaphane 5.00 μM 24 h",8.2%
same,Survival,"[2]; 365 nm light, column Control, sulforaphane 1.25 μM 24 h",100.7%
same,Survival,"[2]; 365 nm light, column Control, sulforaphane 2.50 μM 24 h",97.4%
same,Survival,"[2]; 365 nm light, column Control, sulforaphane 5.00 μM 24 h",101.4%
same,Survival,"[2]; in dark, all-trans-retinal 0 μM, sulforaphane 1.25 μM 24 h",96.6%
same,Survival,"[2]; in dark, all-trans-retinal 0 μM, sulforaphane 2.50 μM 24 h",99.4%
same,Survival,"[2]; in dark, all-trans-retinal 0 μM, sulforaphane 5.00 μM 24 h",103.1%
same,Survival,"[2]; in dark, all-trans-retinal 12.5 μM, sulforaphane 1.25 μM 24 h",96.3%
same,Survival,"[2]; in dark, all-trans-retinal 12.5 μM, sulforaphane 2.50 μM 24 h",101.5%
same,Survival,"[2]; in dark, all-trans-retinal 12.5 μM, sulforaphane 5.00 μM 24 h",104.6%
same,Survival,"[2]; in dark, all-trans-retinal 25 μM, sulforaphane 1.25 μM 24 h",97.7%
same,Survival,"[2]; in dark, all-trans-retinal 25 μM, sulforaphane 2.50 μM 24 h",98.3%
same,Survival,"[2]; in dark, all-trans-retinal 25 μM, sulforaphane 5.00 μM 24 h",104.8%
same,Survival,"[2]; in dark, all-trans-retinal 50 μM, sulforaphane 1.25 μM 24 h",98.4%
same,Survival,"[2]; in dark, all-trans-retinal 50 μM, sulforaphane 2.50 μM 24 h",99.9%
same,Survival,"[2]; in dark, all-trans-retinal 50 μM, sulforaphane 5.00 μM 24 h",106.8%
same,Survival,"[2]; in dark, all-trans-retinal 100 μM, sulforaphane 1.25 μM 24 h",74.7%
same,Survival,"[2]; in dark, all-trans-retinal 100 μM, sulforaphane 2.50 μM 24 h",75.6%
same,Survival,"[2]; in dark, all-trans-retinal 100 μM, sulforaphane 5.00 μM 24 h",84.6%
same,Survival,"[2]; in dark, column Control, sulforaphane 1.25 μM 24 h",96.7%
same,Survival,"[2]; in dark, column Control, sulforaphane 2.50 μM 24 h",99.5%
same,Survival,"[2]; in dark, column Control, sulforaphane 5.00 μM 24 h",105.6%
same,specific activity of glutathione reductase after removal of sulforaphane,[3],continued to rise for 48 h after removal of sulforaphane
same,specific activities of QR in cytosols,[4]; sulforaphane 0-5.0 μM 24 h,rose with exposure to increasing concentrations of sulforaphane
same,specific activity of QR after removal of sulforaphane,"[4]; sulforaphane 0.625 and 2.5 μM 24 h, then medium without inducer",continued to rise for 48 h after removal of sulforaphane
